According to patent US5808124A, “O- or S-substituted dihydronaphthalene derivatives having retinoid and/or retinoid antagonist-like biological activity” (Allergan, priority 1996, dated 1998):

System: ornithine decarboxylase (ODC)
Test: ODC assay: inhibition of TPA induction of ornithine decarboxylase (ODC) activity
Format: biochemical
Conditions: for IC60: 60% inhibition in the ODC assay (TPA induction); for IC80: 80% inhibition in the ODC assay (TPA induction), printed in the IC60 column marked (IC80)
From the text: A classic measure of retinoic acid activity involves measuring the effects of retinoic acid on ornithine decarboxylase. The original work on the correlation between retinoic acid and decrease in cell proliferation was done by Verma & Boutwell, Cancer Research, 1977, 37,2196-2201. That reference discloses that ornithine decarboxylase (ODC) activity increased precedent to polyamine biosynthesis. It has been established elsewhere that increases in polyamine synthesis can be correlated or associated with cellular proliferation. Thus, if ODC activity could be inhibited, cell hyperproliferation could be modulated. Although all cases for ODC activity increases are unknown, it is known that 12-0-tetradecanoylphorbol-13-acetate (TPA) induces ODC activity. Retinoic acid inhibits this induction of ODC activity by TPA. […] Activity of exemplary compounds of the present invention in the above-described ODC assay is disclosed in Table 1 which provides the IC60 concentration for the respective exemplary compound. ("IC60 " is that concentration of the test compound which causes 60% inhibition in the ODC assay. By analogy, "IC80, for example, is that concentration of the test compound which causes 80% inhibition in the ODC assay.)

Row | SMILES | IC60 | IC80
1 | CCO/N=C1\CCC(C)(C)c2ccc(/C=C/c3ccc(C(=O)OCC)cc3)cc21 [Compound A5, ethyl (E)-4-[2-(5,5-dimethyl-5,6-dihydro-8(7H)-anti-(O-ethyl oxime)-naphthalen-2-yl)ethenyl]-benzoate] | 10.3 nmols | –
2 | CCOC(=O)c1ccc(/C=C/c2ccc3c(c2)C(Sc2ccccc2)=CCC3(C)C)cc1 [Compound A16, ethyl (E)-4-[2-(5,6-dihydro-5,5-dimethyl-8-(phenylthio)-naphthalen-2-yl)ethenyl]benzoate] | – | 4.3 nmols

Continued, values first:

Row | IC60 | IC80 | SMILES
3 | 43.7 nmols | – | CCOC(=O)c1ccc(/C=C/c2ccc3c(c2)C2(CCC3(C)C)SCCCS2)cc1 [Compound A23]
4 | 1.9 nmols | – | CCOC(=O)c1ccc(/N=N/c2ccc3c(c2)C(OCOC)CCC3(C)C)cc1 (racemic) [Compound D6, (+/-) ethyl 4-[(5,5-dimethyl-8-(methoxymethyloxy)-5,6,7,8-tetrahydronaphthalen-2-yl)azo]benzoate]
5 | 10 nmols | – | CCO/N=C1\CCC(C)(C)c2ccc(/C(C)=C/C=C/C(C)=C/C(=O)OCC)cc21 [Compound C22b, Ethyl 7-[4,4-dimethyl-3,4-dihydro-1(2H)-anti-(O-ethyl oxime)-naphth-7-yl]3,7-dimethyl-hepta-2(E),4(E),6(E)-trienoate]
6 | – | 4.3 nmols | CC1(C)CC=C(c2cccs2)c2ccc(C(=O)/C=C/c3ccc(C(=O)O)cc3)cc21 [Compound D34, 4-[3-oxo-3-(7,8-dihydro-5-(2-thienyl)-8.8-dimethyl-2-naphthalenyl) - 1-propenyl]-benzoic acid]
